One test addresses T1, IRAK4 (Homo sapiens, UniProt Q9NWZ3).
T1 sequence (Q9NWZ3 1-460): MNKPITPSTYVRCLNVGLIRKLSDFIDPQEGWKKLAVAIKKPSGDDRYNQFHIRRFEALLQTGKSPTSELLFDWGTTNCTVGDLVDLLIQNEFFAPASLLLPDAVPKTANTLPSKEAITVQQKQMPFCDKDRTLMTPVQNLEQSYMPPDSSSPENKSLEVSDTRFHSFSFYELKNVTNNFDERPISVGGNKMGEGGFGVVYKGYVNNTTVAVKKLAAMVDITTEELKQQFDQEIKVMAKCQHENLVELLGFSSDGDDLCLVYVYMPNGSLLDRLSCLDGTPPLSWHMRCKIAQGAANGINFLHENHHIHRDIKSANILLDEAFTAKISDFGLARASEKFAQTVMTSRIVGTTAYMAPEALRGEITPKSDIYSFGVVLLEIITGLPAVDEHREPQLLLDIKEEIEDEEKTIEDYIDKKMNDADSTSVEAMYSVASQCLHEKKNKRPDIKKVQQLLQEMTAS
As to the kind of experiment: Reaction Biology NanoBRET target engagement assay, IRAK4. It counts as cell-based. The note with it: HEK-293 cells transfected with Kinase-NanoLuc fusion vector, live cells. The source says:
The NanoBRET assay measures kinase engagement in real time in the context of the intact cell. Unlike the previously described biochemical kinase assay methodologies in Examples 47 and 48, the NanoBRET assay measures the binding and activity characteristics under equilibrium conditions using full-length kinases in the presence of cellular concentrations of ATP in live, uncompromised cells. […] The assay uses a Kinase-NanoLuc® fusion vector expressing a kinase protein to which a luciferase tag has been added, a cell-permeant fluorescent NanoBRET™ tracer, a NanoLuc® substrate, and an extracellular NanoLuc® inhibitor. Upon expression of the luciferase-tagged kinase, cells will produce a strong BRET signal only in the presence of the NanoBRET™ tracer. The extracellular NanoLuc® inhibitor ensures that the BRET signal observed emanates only from live cells. Because the BRET signal has tight distance constraints, addition of the test compound will decrease the BRET signal if the compound competes with the NanoBRET™ tracer for binding to the kinase domain. Under the appropriate tracer conditions established by the manufacturer, quantitative intracellular affinity and relative potency can then be determined using Mass Action model equations.
HEK-293 cells were purchased from ATCC. FuGENEHD Transfection Reagent, Kinase-NanoLucfusion plasmids, Transfection Carrier DNA, NanoBRETTracers and dilution buffer, NanoBRETNano-Glo Substrate, Extracellular NanoLucInhibitor were obtained from Promega.
Assays were conducted following Promega assay protocol with some modifications. HEK-293 Cells were transiently transfected with Kinase-NanoLucFusion Vector DNA by FuGENEHD Transfection Reagent. Testing compounds were delivered into 384 well assay plate by Echo 550 (LabcyteInc, Sunnyvale, CA). Transfected cells were harvested and mixed with NanoBRETTracer Reagent and dispensed into 384 well plates and incubated at 37° C. in 5% CO2 cell culture incubator for 1 hour. The NanoBRETNano-Glo Substrate plus Extracellular NanoLucInhibitor Solution were added into the wells of the assay plate and incubated for 2-3 minutes at room temperature. The donor emission wavelength (460 nm) and acceptor emission wavelength (600 nm) were measured in the EnVisionplate reader. The BRET Ratios were calculated. BRET Ratio=[(Acceptor sample÷Donor sample)−(Acceptor no-tracer control÷Donor no-tracer control)]. The IC50 values of compounds were calculated with Prism GraphPad program.
• 1). Cultivate HEK-293 cells (70-80% confluence) appropriately prior to assay. Trypsinize and collect HEK-293 cells. • 2). Prepare lipid: DNA complexes as follows: • a. Prepare a 10 μg/ml solution of DNA in Opti-MEM without serum that consists of the following ratios of carrier DNA and DNA encoding NanoLuc® fusion. […] of Transfection Carrier DNA, […] of NanoLuc fusion vector DNA and 1 mL of Opti-MEM without phenol red. Mix thoroughly. • b. Add 30 μl of FuGENE HD Transfection Reagent into each milliliter of DNA mixture to form lipid: DNA complex. • c. Mix by inversion 10 times. • d. Incubate at ambient temperature for 20 minutes to allow complexes to form. • 3). In a sterile, conical tube, mix 1 part of lipid:DNA complex with 20 parts of HEK-293 cells in suspension. Mix gently by inversion 5 times. • 4). Dispense cells+lipid: DNA complex into a sterile tissue culture dish and incubate for 22-24 hours.
Each test compound is delivered from the compound source plate to the wells of 384-well white NBS plate by Echo 550.
3. Preparation of Cells with NanoBRET™ Tracer Reagent • 1). Remove medium from dish with transfected HEK-293 cells via aspiration, trypsinize and allow cells to dissociate from the dish. • 2). Neutralize trypsin using medium containing serum and centrifuge at 200× g for 5 minutes to pellet the cells. Adjust the cell density to […] cells/mL in Opti-MEM without phenol red. • 3). Prepare Complete 20× NanoBRET™ Tracer Reagent with Tracer Dilution Buffer. • 4). […]

In the next test the target is T2, IRAK1 (Homo sapiens, UniProt P51617).
T2 construct: purchased RBC (Reaction Biology) HotSpot assay
T2 sequence (P51617 whole entry): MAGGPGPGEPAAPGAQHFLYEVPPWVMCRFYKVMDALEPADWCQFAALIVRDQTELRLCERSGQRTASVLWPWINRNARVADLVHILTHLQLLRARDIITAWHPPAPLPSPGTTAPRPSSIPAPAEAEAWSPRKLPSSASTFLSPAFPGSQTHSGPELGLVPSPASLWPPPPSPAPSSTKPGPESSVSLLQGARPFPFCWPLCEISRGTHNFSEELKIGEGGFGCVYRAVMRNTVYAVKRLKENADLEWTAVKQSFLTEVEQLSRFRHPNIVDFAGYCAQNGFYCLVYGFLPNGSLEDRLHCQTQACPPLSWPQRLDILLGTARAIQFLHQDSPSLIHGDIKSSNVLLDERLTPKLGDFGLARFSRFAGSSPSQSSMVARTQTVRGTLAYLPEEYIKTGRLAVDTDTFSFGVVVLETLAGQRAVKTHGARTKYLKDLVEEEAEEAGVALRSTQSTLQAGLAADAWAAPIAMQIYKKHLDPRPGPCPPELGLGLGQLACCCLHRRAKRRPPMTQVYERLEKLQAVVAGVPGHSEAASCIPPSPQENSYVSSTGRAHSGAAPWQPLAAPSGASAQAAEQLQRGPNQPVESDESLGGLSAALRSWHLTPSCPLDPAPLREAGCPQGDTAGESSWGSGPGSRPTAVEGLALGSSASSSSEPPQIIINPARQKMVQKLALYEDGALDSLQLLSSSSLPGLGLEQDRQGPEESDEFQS
As to the kind of experiment: RBC HotSpot Kinase Assay, IRAK1. It counts as biochemical. Conditions: HotSpot functional assay, isolated kinase enzyme, 33P-ATP. The gist of the method: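 Isolated kinases, possibly truncated or lacking regulatory receptor regions, were preincubated with compound for 20 min at room temp in 20 mM Hepes pH 7.5, 10 mM MgCl2, 1 mM EGTA, 2 mM DTT, 1% DMSO. Reactions were started with ^33P-ATP and run 2 h at room temperature; activity was read by P81 filter binding.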

On to `COc1cc2ncc(-c3nc(N[C@H]4CNCC[C@@H]4F)c(F)cc3F)n2nc1C(C)(O)C(F)(F)F` (single isomer, unassigned) [Compound 77a], for which the 50% inhibitory concentration (IC50) against IRAK4 came to 0.0004 µM; on IRAK1 it was 0.362 µM.
For `COc1cc2ncc(-c3nc(N[C@@H]4CCCNC4)c(F)cc3F)n2nc1C(C)(O)C(F)(F)F` (single isomer, unassigned) [Compound 81a] the same measures were 0.0006 µM and 0.589 µM.
The corresponding values for `COc1cc2ncc(-c3nc(N[C@H]4CNCC[C@@H]4F)c(F)cc3F)n2nc1C1CCC1` [Compound 15a, 6-(6-cyclobutyl-7-methoxyimidazo[1,2-b]pyridazin-3-yl)-3,5-difluoro-N-((3S,4S)-4-fluoropiperidin-3-yl)pyridin-2-amine] are 0.001 µM and 0.012 µM.
For `COc1cc2ncc(-c3nc(N[C@H]4CNC[C@@H]4F)c(F)cc3F)n2nc1C1CC2(CCC2)C1` [Compound 12a, 3,5-difluoro-N-((3S,4S)-4-fluoropyrrolidin-3-yl)-6-(7-methoxy-6-(spiro[3.3]heptan-2-yl)imidazo[1,2-b]pyridazin-3-yl)pyridin-2-amine] the same measures were 0.071 µM and 0.088 µM.
As to `COc1cc2ncc(-c3nc(N[C@H]4CNCC[C@@H]4F)c(F)cc3F)n2nc1C12CC(C1)C2` [Compound 67a, 6-(6-(bicyclo[1.1.1]pentan-1-yl)-7-methoxyimidazo[1,2-b]pyridazin-3-yl)-3,5-difluoro-N-((3S,4S)-4-fluoropiperidin-3-yl)pyridin-2-amine], the IC50 at IRAK4 is 0.005 µM; against IRAK1, 0.009 µM.
For `COc1cc2ncc(-c3nc(N[C@H]4CNCC[C@@H]4F)c(F)cc3F)n2nc1C1CC2(CCC2)C1` [Compound 10a, 3,5-difluoro-N-((3S,4S)-4-fluoropiperidin-3-yl)-6-(7-methoxy-6-(spiro[3.3]heptan-2-yl)imidazo[1,2-b]pyridazin-3-yl)pyridin-2-amine] the same measures were 0.064 µM and 0.072 µM.
The corresponding values for `COc1cc2ncc(-c3nc(N[C@H]4CNC[C@@H]4F)c(F)cc3F)n2nc1C(C)(O)C(F)(F)F` (single isomer, unassigned) [Compound 80a] are 0.005 µM and 1.55 µM.

Values taken from patent publication US20250368648A1, “MULTI-CYCLIC IRAK AND FLT3 INHIBITING COMPOUNDS AND USES THEREOF” (CHILDREN'S HOSPITAL MEDICAL CENTER, priority 2022, published 2025).
